The record followed here is patent US20230096766A1, “AMINO ACID HAVING FUNCTIONAL GROUP CAPABLE OF INTERMOLECULAR HYDROGEN BONDING, PEPTIDE COMPOUND CONTAINING SAME AND METHOD FOR PRODUCTION THEREOF” (Chugai Seiyaku Kabushiki Kaisha, priority 2018, published 2023).

*1 amine or outer side, *2 acyl side, *3 side chain or, on linkers, in order; H or OH if unused. Where a SMILES comes first, the peptide text is derived from it. Bridges are numbered along the chain shown (N, C = ends). [ ]: non-standard residue; d: D form. The star is where a group is joined. ξ: configuration not given here. NMePhe(3-Cl) = CN[C@@H](Cc1cccc(Cl)c1)C(=O)O; NMehPhe = CN[C@@H](CCc1ccccc1)C(=O)O; NMeF = CN[C@@H](Cc1ccccc1)C(=O)O; NMeGABA = CN(CCCC(=O)[*:2])[*:1]; NMeI = CC[C@H](C)[C@H](NC)C(=O)O; CH2CONHtBu = CC(C)(C)NC(=O)C*; NMeL = CN[C@@H](CC(C)C)C(=O)O; Thr(3ξ) = CC(O)[C@H](N)C(=O)O; NMeV = CN[C@H](C(=O)O)C(C)C; NMeA = CN[C@@H](C)C(=O)O; Piperidide = C1CCN(*)CC1; CH2CMe2OH = CC(C)(O)C*; NBuGly = CCCCNCC(=O)O; Isopentyl = CC(C)CC*; NPrGly = CCCNCC(=O)O; Sar = CNCC(=O)O; tBu = CC(C)(C)*

The series in a line: in vitro. To be noted: human, Caco-2, Caco-2 (cm/sec).
Consider `CCCN1CC(=O)N(C)[C@@H](CC(C)C)C(=O)N[C@@H](COCCC(C)C)C(=O)N(C)[C@@H](Cc2ccccc2)C(=O)N(C)[C@@H](C(C)C)C(=O)N[C@H](C(=O)N2CCCCC2)CC(=O)N[C@H](C(C)C)C(=O)N(C)[C@@H](Cc2ccccc2)C(=O)N[C@@H](COCC(C)(C)O)C(=O)N(C)[C@@H](CC(C)C)C(=O)N[C@@H]([C@@H](C)O)C1=O` [AP01] ([dV][NMeF]S(CH2CMe2OH)[NMeL]T[NPrGly][NMeL]S(Isopentyl)[NMeF][NMeV]D-Piperidide; lactam N-11), for which the apparent permeability coefficient (Papp) was 1.4 ×10⁻⁶ cm/s. Then `CC(C)C[C@@H]1NC(=O)[C@H](Cc2ccccc2)N(C)C(=O)[C@@H](C(C)C)NC(=O)C[C@@H](C(=O)N2CCCCC2)NC(=O)[C@H](CC(C)C)N(C)C(=O)[C@H](Cc2cccc(Cl)c2)N(C)C(=O)[C@H](COCC(C)(C)O)NC(=O)[C@H](CC(C)C)N(C)C(=O)CN(C)C(=O)[C@H]([C@@H](C)O)NC(=O)[C@H](CC(C)C)N(C)C1=O` [AP02] ([dV][NMeF]L[NMeL]T[Sar][NMeL]S(CH2CMe2OH)[NMePhe(3-Cl)][NMeL]D-Piperidide; lactam N-11), with 1.3 ×10⁻⁶ cm/s; and `CC(C)CCOC[C@@H]1NC(=O)[C@H](Cc2ccccc2)N(C)C(=O)[C@H](Cc2ccccc2)N(C)C(=O)[C@H](COCC(C)(C)O)NC(=O)[C@H](CC(C)C)N(C)C(=O)CCCN(C)C(=O)C[C@@H](C(=O)N2CCCCC2)NC(=O)[C@H](CC(C)C)N(C)C(=O)[C@H](CC(C)C)N(C)C(=O)[C@H]([C@@H](C)O)NC(=O)[C@H](CC(C)C)N(C)C1=O` [AP03] ([NMeGABA][NMeL]S(CH2CMe2OH)[NMeF][NMeF]S(Isopentyl)[NMeL]T[NMeL][NMeL]D-Piperidide; lactam N-11), with 0.46 ×10⁻⁶ cm/s; and `CC[C@H](C)[C@@H]1NC(=O)[C@H](CC(C)C)N(C)C(=O)CCCN(C)C(=O)C[C@@H](C(=O)N2CCCCC2)NC(=O)[C@H](CC(C)C)N(C)C(=O)[C@H](CC(C)C)N(C)C(=O)[C@H]([C@@H](C)O)NC(=O)[C@H](CC(C)C)N(C)C(=O)[C@H](COCC(C)(C)O)NC(=O)[C@H](Cc2cccc(Cl)c2)N(C)C(=O)[C@H](Cc2ccccc2)N(C)C1=O` [AP04] ([NMeGABA][NMeL]I[NMeF][NMePhe(3-Cl)]S(CH2CMe2OH)[NMeL]T[NMeL][NMeL]D-Piperidide; lactam N-11), with 0.53 ×10⁻⁶ cm/s. As for `CCCN1CC(=O)N(C)[C@@H](CC(C)C)C(=O)N[C@H](C(=O)N2CCCCC2)CC(=O)N(C)[C@@H](C)C(=O)N[C@@H](COCC(C)(C)O)C(=O)N(C)[C@@H](CC(C)C)C(=O)N(C)[C@@H](Cc2ccccc2)C(=O)N[C@@H](CC(C)C)C(=O)N(C)[C@@H](Cc2ccccc2)C(=O)N(C)[C@@H]([C@@H](C)CC)C(=O)N[C@@H]([C@@H](C)O)C1=O` [AP05] ([NMeA]S(CH2CMe2OH)[NMeL][NMeF]L[NMeF][NMeI]T[NPrGly][NMeL]D-Piperidide; lactam N-11), the figure is 2.8 ×10⁻⁶ cm/s; as for `CCCN1CC(=O)N(C)[C@@H](CC(C)C)C(=O)N[C@H](C(=O)N2CCCCC2)CC(=O)N(C)[C@@H](C)C(=O)N[C@@H](CC(C)C)C(=O)N(C)[C@@H](CC(C)C)C(=O)N(C)[C@@H](Cc2ccccc2)C(=O)N[C@@H](COCC(C)(C)O)C(=O)N(C)[C@@H](Cc2ccccc2)C(=O)N(C)[C@@H]([C@@H](C)CC)C(=O)N[C@@H]([C@@H](C)O)C1=O` [AP06] ([NMeA]L[NMeL][NMeF]S(CH2CMe2OH)[NMeF][NMeI]T[NPrGly][NMeL]D-Piperidide; lactam N-11), 0.033 ×10⁻⁶ cm/s. `CCCN1CC(=O)N(C)[C@@H](Cc2cccc(Cl)c2)C(=O)N(C)[C@@H](CC(C)C)C(=O)N[C@@H](COC(C)(C)C)C(=O)N(C)[C@@H](CC(C)C)C(=O)N[C@H](C(=O)N2CCCCC2)CC(=O)N(C)CC(=O)N(C)[C@@H](Cc2ccccc2)C(=O)N[C@@H](COCC(C)(C)O)C(=O)N(C)[C@@H](CC(C)C)C(=O)N[C@@H]([C@@H](C)O)C1=O` [AP07] ([Sar][NMeF]S(CH2CMe2OH)[NMeL]T[NPrGly][NMePhe(3-Cl)][NMeL]S(tBu)[NMeL]D-Piperidide; lactam N-11): the apparent permeability coefficient (Papp) was determined as 1.3 ×10⁻⁶ cm/s. In turn, `CCCN1CC(=O)N(C)[C@@H](Cc2ccccc2)C(=O)N(C)[C@@H](CC(C)C)C(=O)N[C@@H](COCC(C)(C)O)C(=O)N(C)[C@@H](CC(C)C)C(=O)N[C@H](C(=O)N2CCCCC2)CC(=O)N(C)CC(=O)N(C)[C@@H](Cc2ccccc2)C(=O)N[C@@H]([C@@H](C)CC)C(=O)N(C)[C@@H](CC(C)C)C(=O)N[C@@H]([C@@H](C)O)C1=O` [AP08] ([Sar][NMeF]I[NMeL]T[NPrGly][NMeF][NMeL]S(CH2CMe2OH)[NMeL]D-Piperidide; lactam N-11) yielded a Papp of 0.67 ×10⁻⁶ cm/s.

`CCCN1CC(=O)N(C)[C@@H](Cc2ccccc2)C(=O)N[C@@H]([C@@H](C)CC)C(=O)N(C)[C@@H](CC(C)C)C(=O)N[C@@H]([C@@H](C)O)C(=O)N(CCC)CC(=O)N(C)[C@@H](Cc2ccccc2)C(=O)N(C)[C@@H](CC(C)C)C(=O)N[C@@H](COCC(C)(C)O)C(=O)N(C)[C@@H](C(C)C)C(=O)N[C@H](C(=O)N2CCCCC2)CC1=O` [AP09] ([NPrGly][NMeF]I[NMeL]T[NPrGly][NMeF][NMeL]S(CH2CMe2OH)[NMeV]D-Piperidide; lactam N-11): the apparent permeability (Papp) is 1.1 ×10⁻⁶ cm/s. Then `CCCN1CC(=O)N(C)[C@@H](CC(C)C)C(=O)N[C@@H](COCC(C)(C)O)C(=O)N(C)[C@@H](Cc2ccccc2)C(=O)N(C)[C@@H](CC(C)C)C(=O)N[C@H](C(=O)N2CCCCC2)CC(=O)N[C@H](C(C)C)C(=O)N(C)[C@@H](Cc2ccccc2)C(=O)N[C@@H](CC(C)C)C(=O)N(C)[C@@H](CC(C)C)C(=O)N[C@@H]([C@@H](C)O)C1=O` [AP10] ([dV][NMeF]L[NMeL]T[NPrGly][NMeL]S(CH2CMe2OH)[NMeF][NMeL]D-Piperidide; lactam N-11), with 1.5 ×10⁻⁶ cm/s. As for `CCCCN1CC(=O)N(C)[C@@H](CC(C)C)C(=O)N[C@@H](COCC(=O)NC(C)(C)C)C(=O)N(C)[C@@H](CCc2ccccc2)C(=O)N(C)[C@@H](C)C(=O)N[C@H](C(=O)N2CCCCC2)CC(=O)N[C@H](CC(C)C)C(=O)N(C)[C@@H](CC(C)C)C(=O)N[C@@H](Cc2ccccc2)C(=O)N(C)[C@@H](CC(C)C)C(=O)N[C@@H](C(C)O)C1=O` (stereo partly drawn) [AP12] ([dL][NMeL]F[NMeL][Thr(3ξ)][NBuGly][NMeL]S(CH2CONHtBu)[NMehPhe][NMeA]D-Piperidide; lactam N-11), the figure is 0.17 ×10⁻⁶ cm/s; as for `CCCN1CC(=O)N(C)[C@@H](CC(C)C)C(=O)N[C@@H](COCC(=O)NC(C)(C)C)C(=O)N(C)[C@@H](CC(C)C)C(=O)N(C)[C@@H](C)C(=O)N[C@H](C(=O)N2CCCCC2)CC(=O)N[C@H](CC(C)C)C(=O)N(C)[C@@H](CC(C)C)C(=O)N[C@@H](Cc2ccccc2)C(=O)N(C)[C@@H](CCc2ccccc2)C(=O)N[C@@H]([C@@H](C)O)C1=O` [AP13] ([dL][NMeL]F[NMehPhe]T[NPrGly][NMeL]S(CH2CONHtBu)[NMeL][NMeA]D-Piperidide; lactam N-11), 0.32 ×10⁻⁶ cm/s; as for `CC(C)C[C@@H]1NC(=O)[C@H](Cc2ccccc2)N(C)C(=O)[C@H](CC(C)C)N(C)C(=O)[C@H](COCC(=O)NC(C)(C)C)NC(=O)[C@H](CC(C)C)N(C)C(=O)C[C@@H](C(=O)N2CCCCC2)NC(=O)[C@H](C)N(C)C(=O)CN(C)C(=O)[C@H]([C@@H](C)O)NC(=O)[C@H](CC(C)C)N(C)C(=O)[C@H](CCc2ccccc2)N(C)C1=O` [AP14] ([NMeL]S(CH2CONHtBu)[NMeL][NMeF]L[NMehPhe][NMeL]T[Sar][NMeA]D-Piperidide; lactam N-11), 0.39 ×10⁻⁶ cm/s. Then `CCCN1CC(=O)N(C)[C@@H](C)C(=O)N[C@H](C(=O)N2CCCCC2)CC(=O)N(C)[C@@H](CC(C)C)C(=O)N[C@@H](Cc2ccccc2)C(=O)N(C)[C@@H](CC(C)C)C(=O)N(C)[C@@H](CC(C)C)C(=O)N[C@@H](COCC(=O)NC(C)(C)C)C(=O)N(C)[C@@H](CCc2ccccc2)C(=O)N(C)[C@@H](CC(C)C)C(=O)N[C@@H]([C@@H](C)O)C1=O` [AP15] ([NMeL]F[NMeL][NMeL]S(CH2CONHtBu)[NMehPhe][NMeL]T[NPrGly][NMeA]D-Piperidide; lactam N-11), with 0.86 ×10⁻⁶ cm/s. `CC(C)C[C@@H]1NC(=O)[C@H](CC(C)C)N(C)C(=O)[C@H](CCc2ccccc2)N(C)C(=O)[C@H](COCC(=O)NC(C)(C)C)NC(=O)[C@H](CC(C)C)N(C)C(=O)C[C@@H](C(=O)N2CCCCC2)NC(=O)[C@H](C)N(C)C(=O)CN(C)C(=O)[C@H]([C@@H](C)O)NC(=O)[C@H](CCc2ccccc2)N(C)C(=O)[C@H](CC(C)C)N(C)C1=O` [AP16] ([NMeL]S(CH2CONHtBu)[NMehPhe][NMeL]L[NMeL][NMehPhe]T[Sar][NMeA]D-Piperidide; lactam N-11) yielded a Papp of 0.27 ×10⁻⁶ cm/s.

As to `CCCCN1CC(=O)N(C)[C@@H](Cc2ccccc2)C(=O)N[C@@H](COCC(=O)NC(C)(C)C)C(=O)N(C)[C@@H](CC(C)C)C(=O)N[C@@H]([C@@H](C)O)C(=O)N(CCC)CC(=O)N(C)[C@@H](Cc2ccccc2)C(=O)N(C)[C@@H](CC(C)C)C(=O)N[C@@H](CC(C)C)C(=O)N(C)[C@@H](C)C(=O)N[C@H](C(=O)N2CCCCC2)CC1=O` [AP17] ([NBuGly][NMeF]S(CH2CONHtBu)[NMeL]T[NPrGly][NMeF][NMeL]L[NMeA]D-Piperidide; lactam N-11), the apparent permeability coefficient (Papp) was 0.72 ×10⁻⁶ cm/s.

For the molecule `CCCCN1CC(=O)N(C)[C@@H](Cc2ccccc2)C(=O)N[C@@H]([C@@H](C)CC)C(=O)N(C)[C@@H](CC(C)C)C(=O)N[C@@H]([C@@H](C)O)C(=O)N(CCC)CC(=O)N(C)[C@@H](Cc2ccccc2)C(=O)N(C)[C@@H](CC(C)C)C(=O)N[C@@H](COCC(=O)NC(C)(C)C)C(=O)N(C)[C@@H](C)C(=O)N[C@H](C(=O)N2CCCCC2)CC1=O` [AP18] ([NBuGly][NMeF]I[NMeL]T[NPrGly][NMeF][NMeL]S(CH2CONHtBu)[NMeA]D-Piperidide; lactam N-11), the Papp was 1 ×10⁻⁶ cm/s.

The molecule `CCCCN1CC(=O)N(C)[C@@H](CC(C)C)C(=O)N[C@@H]([C@@H](C)CC)C(=O)N(C)[C@@H](Cc2ccccc2)C(=O)N[C@@H]([C@@H](C)O)C(=O)N(CCCC)CC(=O)N(C)[C@@H](CC(C)C)C(=O)N(C)[C@@H](Cc2ccccc2)C(=O)N[C@@H](COCC(=O)NC(C)(C)C)C(=O)N(C)[C@@H](C)C(=O)N[C@H](C(=O)N2CCCCC2)CC1=O` [AP19] ([NBuGly][NMeL]I[NMeF]T[NBuGly][NMeL][NMeF]S(CH2CONHtBu)[NMeA]D-Piperidide; lactam N-11) registered an apparent permeability coefficient (Papp) of 0.88 ×10⁻⁶ cm/s.

For orientation: Papp means a coefficient for how fast a substance crosses the barrier.
